Columns and labels:
[1] = target: T1, extracellular domain human GC-A recombinant protein (Homo sapiens, UniProt P16066); test: Surface plasmon resonance binding to GC-A receptor; conditions: acetate salt, SPR 25° C., 1:1 Langmuir model; for kon: read-out: ka association rate; for koff: read-out: kd dissociation rate
T1 construct: extracellular domain human GC-A recombinant protein; purchased My BioSource, Inc. San Diego, CA
T1 sequence (P16066 33-473 limits assumed): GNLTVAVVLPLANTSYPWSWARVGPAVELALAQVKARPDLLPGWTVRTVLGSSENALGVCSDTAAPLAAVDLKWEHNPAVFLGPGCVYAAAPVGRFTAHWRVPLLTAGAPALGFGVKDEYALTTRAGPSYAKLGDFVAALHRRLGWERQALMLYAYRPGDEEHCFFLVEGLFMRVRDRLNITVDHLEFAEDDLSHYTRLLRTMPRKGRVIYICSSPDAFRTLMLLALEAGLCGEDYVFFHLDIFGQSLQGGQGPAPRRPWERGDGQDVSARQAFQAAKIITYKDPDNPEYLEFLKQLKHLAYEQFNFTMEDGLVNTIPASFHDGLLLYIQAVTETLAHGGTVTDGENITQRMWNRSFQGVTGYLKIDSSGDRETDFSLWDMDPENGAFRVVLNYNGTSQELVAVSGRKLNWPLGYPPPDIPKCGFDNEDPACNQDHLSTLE
Procedure: Surface plasmon resonance (SPR) measurements were performed at 25° C. on a BI-4500 SPR instrument (Biosensing Instrument Inc. Tempe AZ). As per the instructions by the Biosensing instrument manual, 400 mM nickel sulfate in deionized water was linked to the Ni-NTA sensor chip (Biosensing Instrument Inc. Tempe AZ. Then 30 μg/ml of extracellular domain human GC-A recombinant protein (My BioSource, Inc. San Diego, CA), containing 12 histidine residues on the C-terminus, was then immobilized to the nickel sulfate on the Ni-NTA sensor chip. After, the chip was washed with buffer (150 mM NaCl, 50 μM EDTA pH 7.4, 0).1% DMSO), then 100 μL of sequentially diluted Compound 3 acetate salt (0.125, 0.25, 0.5, 1, 2 μM), Compound 1 acetate salt (6.25, 12.5, 25, 50, 100 nM) or Compound 2 acetate salt (0.125, 0.25, 0.5, 1, 2 μM) was injected at the rate of 60 ul/min and allowed to dissociate for 60 seconds. Data was collected as sensorgrams. Binding kinetics were derived from sensorgrams using BI-Data Analysis Program (Biosensing Instrument, Tempe AZ). Affinity analysis of GC-A with Compound 3, Compound 2 and/or Compound 1 interactions were performed using a 1:1 Langmuir binding model. Two series were performed for all studies.

[2] = test system: spontaneously hypertensive rats; test: In vivo actions in spontaneously hypertensive rats (cGMP, blood pressure, renal function); parameters: species or system rat; conditions: acetate salt, 10 mg/kg single IV bolus, SHR; for plasma cGMP: 15 minutes after administration; for diastolic blood pressure: 60 minutes post-bolus; for diastolic blood pressure / urinary sodium excretion / urinary volume / systolic blood pressure: vs vehicle (and Compound 2); for urinary sodium excretion / urinary volume: post-bolus; for systolic blood pressure: throughout 60 minutes post bolus
Procedure: The cGMP generating, blood pressure lowering and renal enhancing actions of a single intravenous (IV) bolus dose of Compound 3, Compound 1 or Compound 2 acetate salt (n=4/small molecule form: 10 mg/kg) or Vehicle (n=5: 15% DMSO/60% PEG300/25% PBS) in spontaneously hypertensive rats (SHRs; male: 12 weeks old) were investigated. Studies were performed in accordance with the Animal Welfare Act and with approval of the Mayo Clinic Institutional Animal Care and Use Committee.
SHRs were administered Inactin (100 mg/kg: IP) to induce anesthesia and then maintained with additional Inactin (100 mg/kg: IP), as required. Once adequate anesthesia was achieved, the anesthetized SHRs were placed on a heating table set at 37° C. to maintain body temperature for the entire study and then were subjected to vessel and bladder cannulation. A polyethylene (PE)-50 tube catheter was placed into the jugular vein for saline, Compound 3, Compound 1, Compound 2 or vehicle IV administration. The carotid artery was cannulated with a PE-50 tube catheter for blood pressure monitoring (Sonometrics, London, Ontario, Canada) and blood sampling/collection. The bladder was accessed and cannulated with a PE-90 tube catheter for passive urine collection. After completion of the procedural set up, a 45-minute equilibration period was performed that included continuous IV saline infusion, a 30-minute baseline (pre-bolus) urine collection and a single baseline blood sample at the end of the 30-minute baseline urine collection. […] BP was monitored and recorded, beginning prior to IV bolus administration (0-minute post-bolus) and then at 15, 30, 45 and 60 minutes post-bolus. At the end of the 60-minute clearance, the anesthetized rats were euthanized by exsanguination and all blood and urine samples were stored at −80° C. until assayed. Plasma and urinary cGMP levels were measured using a cGMP ELISA kit (Enzo Life Sciences, Farmingdale, NY) as instructed by the manufacturer. Urinary sodium concentrations were determined with an electrolyte analyzer (Diamond Diagnostics Inc., Holliston, MA).

CN(C)CCN1CCC[C@@H](C(=O)Nc2nc3c(F)cc(F)cc3s2)C1 [Compound 2, (R)-N-(4,6-difluorobenzo[d]thiazol-2-yl)-1-(2-(dimethylamino)ethyl) piperidine-3-carboxamide]
Kd [1]: 121 nM | kon [1]: 430000 M⁻¹ s⁻¹ | koff [1]: 0.052 s⁻¹ | plasma cGMP [2]: increase | urinary cGMP [2]: did not increase

CN(C)CCN1CCC[C@H](C(=O)Nc2nc3c(F)cc(F)cc3s2)C1 [Compound 1, (S)-N-(4,6-difluorobenzo[d]thiazol-2-yl)-1-(2-(dimethylamino)ethyl) piperidine-3-carboxamide]
Kd [1]: 12 nM | kon [1]: 1.09e+06 M⁻¹ s⁻¹ | koff [1]: 0.014 s⁻¹ | plasma cGMP [2]: increase | urinary cGMP [2]: increased | diastolic blood pressure [2]: more effective | urinary sodium excretion [2]: more effective | urinary volume [2]: more effective | systolic blood pressure [2]: more effective

CN(C)CCN1CCCC(C(=O)Nc2nc3c(F)cc(F)cc3s2)C1 (racemic) [Compound 3, N-(4,6-difluorobenzo[d]thiazol-2-yl)-1-(2-(dimethylamino)ethyl) piperidine-3-carboxamide]
Kd [1]: 176 nM | kon [1]: 113000 M⁻¹ s⁻¹ | koff [1]: 0.02 s⁻¹ | plasma cGMP [2]: increase | urinary cGMP [2]: increase | diastolic blood pressure [2]: greater reduction | urinary sodium excretion [2]: greater increase | urinary volume [2]: greater increase | systolic blood pressure [2]: greater reduction
